# Assay results from EPA's aquatic toxicity sets.
# Tested on: Tetrahymena pyriformis
# Assay: 48 h IGC50 (-log10 mol/L); higher = more toxic
compound,measurement,value
CCOC(=O)Cc1cccnc1,48 h IGC50 (-log10 mol/L),2.06
CCNC(C)=O,48 h IGC50 (-log10 mol/L),1.3
CCS(=O)(=O)c1ccccc1,48 h IGC50 (-log10 mol/L),2.21
COC(=O)CC(=O)OC,48 h IGC50 (-log10 mol/L),1.71
CCCOC(=O)c1ccccc1,48 h IGC50 (-log10 mol/L),3.42
C=CS(=O)c1ccccc1 (centres undefined),48 h IGC50 (-log10 mol/L),3.16
CCCOC(=O)CCl,48 h IGC50 (-log10 mol/L),4.18
C=C(C)CCO,48 h IGC50 (-log10 mol/L),1.82
C#CC(=O)OC,48 h IGC50 (-log10 mol/L),4.77
C=CC(=O)CCCCC,48 h IGC50 (-log10 mol/L),4.92
CCCCCCCCNC(N)=S,48 h IGC50 (-log10 mol/L),4.51
CCC#CCCO,48 h IGC50 (-log10 mol/L),1.98
C=C(C)C(=O)OCCCCCC,48 h IGC50 (-log10 mol/L),4.09
COc1cc(C=O)cc(OC)c1O,48 h IGC50 (-log10 mol/L),3.17
O=C(O)c1ccc(O)cc1,48 h IGC50 (-log10 mol/L),1.98
OCCc1ccc(O)cc1,48 h IGC50 (-log10 mol/L),2.17
CCCCCC(O)CC (centres undefined),48 h IGC50 (-log10 mol/L),2.94
OCc1cccc(F)c1,48 h IGC50 (-log10 mol/L),2.61
CCCCCC(=O)OC,48 h IGC50 (-log10 mol/L),2.44
CCCOc1ccc(O)cc1,48 h IGC50 (-log10 mol/L),3.52
CCCCCCCCCl,48 h IGC50 (-log10 mol/L),3.67
OC(CBr)CBr,48 h IGC50 (-log10 mol/L),3.57
CC(C)CCC#N,48 h IGC50 (-log10 mol/L),2.21
CC(=O)c1cccs1,48 h IGC50 (-log10 mol/L),2.41
CCCCCCCC#N,48 h IGC50 (-log10 mol/L),3.28
CCC#CCC(O)CC (centres undefined),48 h IGC50 (-log10 mol/L),2.62
CCCCCC#CC(=O)O,48 h IGC50 (-log10 mol/L),2.94
Oc1cc(Cl)c(O)cc1Cl,48 h IGC50 (-log10 mol/L),4.81
Oc1c(Br)cc(Br)c(O)c1Br,48 h IGC50 (-log10 mol/L),4.06
O=[N+]([O-])c1cc(F)ccc1O,48 h IGC50 (-log10 mol/L),4.38
C/C=C/C(=O)CC,48 h IGC50 (-log10 mol/L),3.92
CCC(O)(CC)C(C)(C)C,48 h IGC50 (-log10 mol/L),2.83
CCOC(=O)C(C#N)c1ccccc1 (centres undefined),48 h IGC50 (-log10 mol/L),2.98
C=C(C=O)CCCC,48 h IGC50 (-log10 mol/L),4.07
Cc1cccc(N)c1C,48 h IGC50 (-log10 mol/L),2.57
CCCCCc1cccs1,48 h IGC50 (-log10 mol/L),4.2
O=[N+]([O-])c1ccc(F)cc1O,48 h IGC50 (-log10 mol/L),4.12
CCOC(=O)C[C@@H](C)O,48 h IGC50 (-log10 mol/L),1.47
C=CC(=O)OC(C)(C)C,48 h IGC50 (-log10 mol/L),3.27
CC(C)(Br)[N+](=O)[O-],48 h IGC50 (-log10 mol/L),4.85
CCOC(=O)CC#N,48 h IGC50 (-log10 mol/L),1.77
CC(=O)OCCCCCBr,48 h IGC50 (-log10 mol/L),3.29
Oc1c(Cl)cc(F)cc1Cl,48 h IGC50 (-log10 mol/L),3.8
CC(C)(CO)CBr,48 h IGC50 (-log10 mol/L),2.54
Fc1ccccn1,48 h IGC50 (-log10 mol/L),1.8
CCC(N)CC,48 h IGC50 (-log10 mol/L),2.19
N#CCC(=O)c1ccco1,48 h IGC50 (-log10 mol/L),3.3
CCC(O)Cc1ccccc1 (centres undefined),48 h IGC50 (-log10 mol/L),2.84
CCCCCCc1ccc(O)cc1O,48 h IGC50 (-log10 mol/L),4.8
CCC[C@H](O)c1ccccc1,48 h IGC50 (-log10 mol/L),2.91
CCCCCC#CC(=O)OC,48 h IGC50 (-log10 mol/L),4.04
CCCCCCCCOC(=O)CC#N,48 h IGC50 (-log10 mol/L),3.9
C#CC(C)=O,48 h IGC50 (-log10 mol/L),4.96
C=CCOC(=O)CCC,48 h IGC50 (-log10 mol/L),2.37
CCC=CCCC=CC=O,48 h IGC50 (-log10 mol/L),4.34
NC(=O)c1ccc(N)cc1,48 h IGC50 (-log10 mol/L),2.09
CC(C)c1ccc(N)cc1,48 h IGC50 (-log10 mol/L),3.22
COc1ccc(C=O)c(Cl)c1O,48 h IGC50 (-log10 mol/L),3.2
Cc1cc(C)c(O)c(N)c1,48 h IGC50 (-log10 mol/L),3.89
Cc1ccc([N+](=O)[O-])cc1O,48 h IGC50 (-log10 mol/L),3.66
N#Cc1ccc[nH]1,48 h IGC50 (-log10 mol/L),2.42
C=C(C)C(=O)OCC(C)C,48 h IGC50 (-log10 mol/L),2.72
CCc1ccc(-c2ccccc2)cc1,48 h IGC50 (-log10 mol/L),4.97
CCOC(=O)C(Cl)C(=O)OCC,48 h IGC50 (-log10 mol/L),3.63
CSc1ccccc1,48 h IGC50 (-log10 mol/L),3.18
S=C=NC(c1ccccc1)c1ccccc1,48 h IGC50 (-log10 mol/L),6.05
O=C(Oc1ccccc1)c1ccc(O)cc1,48 h IGC50 (-log10 mol/L),4.37
O=Cc1cccc2ccccc12,48 h IGC50 (-log10 mol/L),3.42
CCc1ccc([N+](=O)[O-])cc1,48 h IGC50 (-log10 mol/L),3.43
CCCCCCC(O)CC (centres undefined),48 h IGC50 (-log10 mol/L),3.36
O=[N+]([O-])c1cccc(F)c1,48 h IGC50 (-log10 mol/L),3.2
CC#Cc1ccccc1,48 h IGC50 (-log10 mol/L),3.19
Nc1ccc([N+](=O)[O-])cc1[N+](=O)[O-],48 h IGC50 (-log10 mol/L),3.72
CCCCC(=O)Cl,48 h IGC50 (-log10 mol/L),2.65
OCCc1ccccc1,48 h IGC50 (-log10 mol/L),2.41
C=CCCCO,48 h IGC50 (-log10 mol/L),1.78
O=Cc1ccc(O)c2ccccc12,48 h IGC50 (-log10 mol/L),4.05
CCCC(=O)O,48 h IGC50 (-log10 mol/L),2.43
N#Cc1c(F)c(F)c(C#N)c(F)c1F,48 h IGC50 (-log10 mol/L),5.55
CC(C)(C)C(=O)O,48 h IGC50 (-log10 mol/L),2.75
C/C=C/COC(C)=O,48 h IGC50 (-log10 mol/L),2.13
C#CC(=O)OCC,48 h IGC50 (-log10 mol/L),4.7
CCCCC(CC)COC(=O)c1ccc(O)cc1 (centres undefined),48 h IGC50 (-log10 mol/L),5.51
O=[N+]([O-])c1ccc(Br)c([N+](=O)[O-])c1,48 h IGC50 (-log10 mol/L),5.31
CC/C=C/C(=O)O,48 h IGC50 (-log10 mol/L),2.72
CCOC(=O)/C=C/c1ccccc1,48 h IGC50 (-log10 mol/L),3.99
Nc1cc(Cl)ccc1O,48 h IGC50 (-log10 mol/L),3.78
CCCCCCC#CCO,48 h IGC50 (-log10 mol/L),3.65
Nc1c(Br)cc([N+](=O)[O-])cc1[N+](=O)[O-],48 h IGC50 (-log10 mol/L),4.24
O=C(O)Cc1ccc(O)cc1,48 h IGC50 (-log10 mol/L),1.5
CCCCC(=O)OCC,48 h IGC50 (-log10 mol/L),2.64
COC(=O)CCCCCCC(=O)OC,48 h IGC50 (-log10 mol/L),3.3
Oc1ccc(Cl)c(Cl)c1,48 h IGC50 (-log10 mol/L),4.75
CCCCCCC(=O)OC,48 h IGC50 (-log10 mol/L),3.1
S=C=Nc1ccc2c(c1)CCC2,48 h IGC50 (-log10 mol/L),5.48
Cc1ccc(O)c([N+](=O)[O-])c1,48 h IGC50 (-log10 mol/L),3.57
CC(=O)NC(C)(C)C,48 h IGC50 (-log10 mol/L),1.84
Cc1c(N)cccc1O,48 h IGC50 (-log10 mol/L),2.45
N#CCCCCl,48 h IGC50 (-log10 mol/L),2.07
CC1CCOC1=O (centres undefined),48 h IGC50 (-log10 mol/L),1.81
CC(C)OC(=O)CC#N,48 h IGC50 (-log10 mol/L),2.05
Nc1c(Br)cc(Br)cc1[N+](=O)[O-],48 h IGC50 (-log10 mol/L),4.62
N#Cc1ccc(C=O)cc1,48 h IGC50 (-log10 mol/L),3.04
Cc1c(C)c(O)c(C)c(C)c1O,48 h IGC50 (-log10 mol/L),4.28
OCCCCO,48 h IGC50 (-log10 mol/L),0.764
C/C=C/C(=O)OCCCC,48 h IGC50 (-log10 mol/L),2.84
NCCc1ccc(Cl)cc1,48 h IGC50 (-log10 mol/L),3.14
N#Cc1cccc(N)c1,48 h IGC50 (-log10 mol/L),2.53
O=Cc1c(O)cc(O)cc1O,48 h IGC50 (-log10 mol/L),3.13
CC#CC(=O)OC,48 h IGC50 (-log10 mol/L),3.4
Cc1cc[nH]c(=O)c1[N+](=O)[O-],48 h IGC50 (-log10 mol/L),2.5
COc1cccc(C=O)c1,48 h IGC50 (-log10 mol/L),3.23
CCC(=O)c1ccco1,48 h IGC50 (-log10 mol/L),2.23
C=COC(=O)c1ccc(C(C)(C)C)cc1,48 h IGC50 (-log10 mol/L),4.57
CC(C)(C)C(=O)CCl,48 h IGC50 (-log10 mol/L),4.27
CCCCCCC(C)=O,48 h IGC50 (-log10 mol/L),2.85
CCC(=O)NC,48 h IGC50 (-log10 mol/L),1.47
CC(C)CCO,48 h IGC50 (-log10 mol/L),1.96
C=COC(=O)c1ccccc1,48 h IGC50 (-log10 mol/L),3.08
CC=CC(C)O (centres undefined),48 h IGC50 (-log10 mol/L),1.6
CC(C)CN,48 h IGC50 (-log10 mol/L),2.74
O=[N+]([O-])c1ccccc1-c1ccccc1,48 h IGC50 (-log10 mol/L),4.3
NC(=O)CI,48 h IGC50 (-log10 mol/L),4.85
N#CCc1ccccc1,48 h IGC50 (-log10 mol/L),2.64
C#CC=CCO,48 h IGC50 (-log10 mol/L),2.44
O=C(CBr)c1cccs1,48 h IGC50 (-log10 mol/L),5.22
N#CCCCCC#N,48 h IGC50 (-log10 mol/L),1.46
CC#CCCO,48 h IGC50 (-log10 mol/L),1.82
NCc1ccc(Cl)cc1,48 h IGC50 (-log10 mol/L),3.16
O=[N+]([O-])c1ccc(O)c(F)c1,48 h IGC50 (-log10 mol/L),4.07
COc1cccc2ccccc12,48 h IGC50 (-log10 mol/L),3.8
Clc1cccc(Cl)c1Br,48 h IGC50 (-log10 mol/L),4.34
Cc1ccc(C=O)c2ccccc12,48 h IGC50 (-log10 mol/L),4.12
CCCCCl,48 h IGC50 (-log10 mol/L),2.09
O=C(Oc1cccc(O)c1)c1ccccc1,48 h IGC50 (-log10 mol/L),4.11
CC/C=C/C=C/C=O,48 h IGC50 (-log10 mol/L),3.86
O=Cc1ccc(F)cc1,48 h IGC50 (-log10 mol/L),2.87
Cc1ccc(O)cc1C,48 h IGC50 (-log10 mol/L),3.12
N#Cc1cc([N+](=O)[O-])cc([N+](=O)[O-])c1,48 h IGC50 (-log10 mol/L),4.22
CCCOC(=O)c1ccccc1C(=O)OCCC,48 h IGC50 (-log10 mol/L),3.98
CCC(C)(C)O,48 h IGC50 (-log10 mol/L),1.83
NC(N)=NC(N)=Nc1ccccc1,48 h IGC50 (-log10 mol/L),2.61
COC(=O)C(C)(C)C,48 h IGC50 (-log10 mol/L),1.72
COc1ccc([N+](=O)[O-])cn1,48 h IGC50 (-log10 mol/L),2.99
CCCCC(=O)OC,48 h IGC50 (-log10 mol/L),2.15
O=[N+]([O-])c1cc(CO)cc([N+](=O)[O-])c1,48 h IGC50 (-log10 mol/L),3.53
C=CC(=O)NCNC(=O)C=C,48 h IGC50 (-log10 mol/L),2.48
O=Cc1ccc(Cl)s1,48 h IGC50 (-log10 mol/L),3.62
O=[N+]([O-])c1ccc(I)c([N+](=O)[O-])c1,48 h IGC50 (-log10 mol/L),5.12
O=C(OCCO)c1ccccc1O,48 h IGC50 (-log10 mol/L),2.92
CCCC(Br)C(=O)O (centres undefined),48 h IGC50 (-log10 mol/L),2.96
CC(C)CC(N)=O,48 h IGC50 (-log10 mol/L),1.34
CC(C)(CN)CO,48 h IGC50 (-log10 mol/L),2.08
C=CCS(=O)(=O)c1ccccc1,48 h IGC50 (-log10 mol/L),3.31
Brc1ccncc1.Cl,48 h IGC50 (-log10 mol/L),2.44
CCCC[N+](=O)[O-],48 h IGC50 (-log10 mol/L),2.31
CCOC(=O)C(Br)C(C)C (centres undefined),48 h IGC50 (-log10 mol/L),3.02
Nc1ccc(C(=O)c2ccccc2)cc1,48 h IGC50 (-log10 mol/L),3.68
OCCCCc1ccccc1,48 h IGC50 (-log10 mol/L),3.12
O=C(NO)c1ccccc1,48 h IGC50 (-log10 mol/L),3.38
CCC(O)CC,48 h IGC50 (-log10 mol/L),1.76
O=c1ccc(Cl)c[nH]1,48 h IGC50 (-log10 mol/L),2.25
CCCCCOC(=O)CC,48 h IGC50 (-log10 mol/L),2.96
CC(=O)c1ccc[nH]1,48 h IGC50 (-log10 mol/L),2.09
Cc1cc(O)c(Cl)cc1C,48 h IGC50 (-log10 mol/L),3.69
CCC#CC(=O)OCC,48 h IGC50 (-log10 mol/L),3.82
Oc1cc(Cl)cc(Cl)c1,48 h IGC50 (-log10 mol/L),4.56
C#CCN(C)C,48 h IGC50 (-log10 mol/L),1.85
NNC(=O)Cc1ccccc1,48 h IGC50 (-log10 mol/L),2.52
